Assay results reported in ChEMBL document CHEMBL3822383, “Coumarin sulfonamides derivatives as potent and selective COX-2 inhibitors with efficacy in suppressing cancer proliferation and metastasis” (Bioorg Med Chem Lett, 2016).
Activity calls are given as the source filed them. No cut-off for these calls is given here.

Tests used:
[1] = system: HeLa; assay: Induction of apoptosis in human HeLa cells assessed as late apoptotic cells at 3 uM after 36 hrs by Annexin V/propidium iodide based flow cytometric analysis (reference value: 2.21 %); type: functional
[2] = system: HeLa; assay: Induction of apoptosis in human HeLa cells assessed as necrotic cells at 4 uM after 24 hrs by Annexin V/propidium iodide based flow cytometric analysis (reference value: 0.441 %); type: functional
[3] = system: HeLa; assay: Induction of apoptosis in human HeLa cells assessed as viable cells at 2 uM after 24 hrs by Annexin V/propidium iodide based flow cytometric analysis (reference value: 95.5 %); type: functional; settings: read-out: Activity
[4] = system: HeLa; assay: Induction of apoptosis in human HeLa cells assessed as viable cells at 8 uM after 24 hrs by Annexin V/propidium iodide based flow cytometric analysis (reference value: 95.5 %); type: functional; settings: read-out: Activity
[5] = system: HeLa; assay: Inhibition of PGE2 secretion in human HeLa cells at 0.1 uM after 24 hrs by EIA monoclonal assay; type: functional, cell-based
[6] = system: HeLa; assay: Induction of apoptosis in human HeLa cells assessed as early apoptotic cells at 8 uM after 24 hrs by Annexin V/propidium iodide based flow cytometric analysis (reference value: 0.902 %); type: functional
[7] = system: HeLa; assay: Induction of apoptosis in human HeLa cells assessed as viable cells at 1 uM after 24 hrs by Annexin V/propidium iodide based flow cytometric analysis (reference value: 95.5 %); type: functional; settings: read-out: Activity
[8] = target: Prostaglandin G/H synthase 1 (Homo sapiens, UniProt P23219); assay: Inhibition of human COX1 using arachidonic acid assessed as production of PGF2alpha after 5 mins by ELISA
Chain of Prostaglandin G/H synthase 1 (P23219 whole entry): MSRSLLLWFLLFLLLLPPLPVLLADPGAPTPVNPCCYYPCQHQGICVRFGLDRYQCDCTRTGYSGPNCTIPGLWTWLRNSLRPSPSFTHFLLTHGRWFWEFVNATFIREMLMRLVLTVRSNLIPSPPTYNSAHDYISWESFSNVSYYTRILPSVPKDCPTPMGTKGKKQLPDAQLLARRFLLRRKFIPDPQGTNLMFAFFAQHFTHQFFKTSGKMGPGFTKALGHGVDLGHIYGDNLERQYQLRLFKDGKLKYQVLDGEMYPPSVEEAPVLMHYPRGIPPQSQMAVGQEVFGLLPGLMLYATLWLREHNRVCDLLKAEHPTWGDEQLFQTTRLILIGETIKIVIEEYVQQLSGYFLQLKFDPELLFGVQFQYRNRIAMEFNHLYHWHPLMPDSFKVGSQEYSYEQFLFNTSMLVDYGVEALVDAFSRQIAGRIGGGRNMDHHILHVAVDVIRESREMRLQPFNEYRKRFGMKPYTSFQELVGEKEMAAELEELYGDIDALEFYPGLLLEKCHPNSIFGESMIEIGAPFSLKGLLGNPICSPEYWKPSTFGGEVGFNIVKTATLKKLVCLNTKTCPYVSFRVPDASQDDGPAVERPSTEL

[9] = system: HeLa; assay: Reduction in cell invasion in PGE2-induced human HeLa cells at 2 uM by transwell invasion assay; type: functional, cell-based
[10] = system: HeLa; assay: Induction of apoptosis in human HeLa cells assessed as necrotic cells at 8 uM after 24 hrs by Annexin V/propidium iodide based flow cytometric analysis (reference value: 0.441 %); type: functional
[11] = system: HeLa; assay: Antiproliferative activity in PGE2-induced human HeLa cells at 2 uM after 12 to 24 hrs by MTT assay; type: functional, cell-based
[12] = cells; settings: Mus musculus, B16-F10, 24 h
Description: Antiproliferative activity against mouse B16F10 cells after 24 hrs by MTT assay

[13] = system: HeLa; assay: Induction of apoptosis in human HeLa cells assessed as viable cells at 4 uM after 24 hrs by Annexin V/propidium iodide based flow cytometric analysis (reference value: 95.5 %); type: functional; settings: read-out: Activity
[14] = system: HeLa; assay: Induction of apoptosis in human HeLa cells assessed as late apoptotic cells at 1 uM after 24 hrs by Annexin V/propidium iodide based flow cytometric analysis (reference value: 3.16 %); type: functional
[15] = system: HeLa; assay: Induction of apoptosis in human HeLa cells assessed as early apoptotic cells at 1 uM after 24 hrs by Annexin V/propidium iodide based flow cytometric analysis (reference value: 0.902 %); type: functional
[16] = system: HeLa; assay: Induction of apoptosis in human HeLa cells assessed as early apoptotic cells at 2 uM after 24 hrs by Annexin V/propidium iodide based flow cytometric analysis (reference value: 0.902 %); type: functional
[17] = system: HeLa; assay: Induction of apoptosis in human HeLa cells assessed as late apoptotic cells at 4 uM after 24 hrs by Annexin V/propidium iodide based flow cytometric analysis (reference value: 3.16 %); type: functional
[18] = system: HeLa; assay: Induction of apoptosis in human HeLa cells assessed as early apoptotic cells at 3 uM after 24 hrs by Annexin V/propidium iodide based flow cytometric analysis (reference value: 1.61 %); type: functional
[19] = system: HeLa; assay: Inhibition of cell adhesion in PGE2-induced human HeLa cells assessed as reduction in cell attachment at 2 uM after 12 hrs by MTT assay; type: functional, cell-based
[20] = system: HeLa; assay: Induction of apoptosis in human HeLa cells assessed as late apoptotic cells at 3 uM after 12 hrs by Annexin V/propidium iodide based flow cytometric analysis (reference value: 2.21 %); type: functional
[21] = system: HeLa; assay: Induction of apoptosis in human HeLa cells assessed as viable cells at 3 uM after 12 hrs by Annexin V/propidium iodide based flow cytometric analysis (reference value: 96 %); type: functional; settings: read-out: Activity
[22] = system: HeLa; assay: Induction of apoptosis in human HeLa cells assessed as early apoptotic cells at 3 uM after 12 hrs by Annexin V/propidium iodide based flow cytometric analysis (reference value: 1.61 %); type: functional
[23] = system: HeLa; assay: Inhibition of cell adhesion in human HeLa cells assessed as reduction in cell attachment at 2 uM after 1 hr by MTT assay; type: functional
[24] = system: HeLa; assay: Induction of apoptosis in human HeLa cells assessed as necrotic cells at 3 uM after 24 hrs by Annexin V/propidium iodide based flow cytometric analysis (reference value: 0.207 %); type: functional
[25] = system: HeLa; assay: Induction of apoptosis in human HeLa cells assessed as early apoptotic cells at 4 uM after 24 hrs by Annexin V/propidium iodide based flow cytometric analysis (reference value: 0.902 %); type: functional
[26] = system: HeLa; assay: Induction of apoptosis in human HeLa cells assessed as necrotic cells at 3 uM after 12 hrs by Annexin V/propidium iodide based flow cytometric analysis (reference value: 0.441 %); type: functional
[27] = system: HeLa; assay: Induction of apoptosis in human HeLa cells assessed as necrotic cells at 1 uM after 24 hrs by Annexin V/propidium iodide based flow cytometric analysis (reference value: 0.441 %); type: functional
[28] = system: HepG2; assay: cells; settings: Homo sapiens, HepG2, 24 h
Description: Antiproliferative activity against human HepG2 cells after 24 hrs by MTT assay

[29] = system: A549; assay: cells; settings: Homo sapiens, A549, 24 h
Description: Antiproliferative activity against human A549 cells after 24 hrs by MTT assay

[30] = system: HeLa; assay: Induction of apoptosis in human HeLa cells assessed as necrotic cells at 3 uM after 36 hrs by Annexin V/propidium iodide based flow cytometric analysis (reference value: 0.207 %); type: functional
[31] = cells; settings: Homo sapiens, HEK-293T, 24 h
Description: Antiproliferative activity against human 293T cells after 24 hrs by MTT assay

[32] = system: HeLa; assay: Induction of apoptosis in human HeLa cells assessed as late apoptotic cells at 3 uM after 24 hrs by Annexin V/propidium iodide based flow cytometric analysis (reference value: 2.21 %); type: functional
[33] = system: HeLa; assay: Induction of apoptosis in PGE2-induced human HeLa cells assessed as late apoptotic cells at 3 uM after 24 hrs by Annexin V/propidium iodide based flow cytometric analysis; type: functional, cell-based
[34] = system: HeLa; assay: Induction of apoptosis in PGE2-induced human HeLa cells assessed as early apoptotic cells at 3 uM after 24 hrs by Annexin V/propidium iodide based flow cytometric analysis; type: functional, cell-based
[35] = system: HeLa; assay: Reduction in cell migration in human HeLa cells up to 4 uM by transwell migration assay; type: functional, cell-based
[36] = system: HeLa; assay: Induction of apoptosis in human HeLa cells assessed as late apoptotic cells at 8 uM after 24 hrs by Annexin V/propidium iodide based flow cytometric analysis (reference value: 3.16 %); type: functional
[37] = system: HeLa; assay: Induction of apoptosis in PGE2-induced human HeLa cells assessed as viable cells at 3 uM after 24 hrs by Annexin V/propidium iodide based flow cytometric analysis; type: functional, cell-based
[38] = system: HeLa; assay: Reduction in cell invasion in human HeLa cells up to 4 uM by transwell invasion assay; type: functional, cell-based
[39] = system: HeLa; assay: Induction of apoptosis in human HeLa cells assessed as viable cells at 3 uM after 36 hrs by Annexin V/propidium iodide based flow cytometric analysis (reference value: 96 %); type: functional; settings: read-out: Activity
[40] = system: HeLa; assay: Induction of apoptosis in human HeLa cells assessed as late apoptotic cells at 2 uM after 24 hrs by Annexin V/propidium iodide based flow cytometric analysis (reference value: 3.16 %); type: functional
[41] = system: HeLa; assay: Induction of apoptosis in human HeLa cells assessed as early apoptotic cells at 3 uM after 36 hrs by Annexin V/propidium iodide based flow cytometric analysis (reference value: 1.61 %); type: functional
[42] = system: HeLa; assay: Induction of apoptosis in PGE2-induced human HeLa cells assessed as necrotic cells at 3 uM after 24 hrs by Annexin V/propidium iodide based flow cytometric analysis; type: functional, cell-based
[43] = system: HeLa; assay: Induction of apoptosis in human HeLa cells assessed as viable cells at 3 uM after 24 hrs by Annexin V/propidium iodide based flow cytometric analysis (reference value: 96 %); type: functional; settings: read-out: Activity
[44] = system: HeLa; assay: Induction of apoptosis in human HeLa cells assessed as necrotic cells at 3 uM after 12 hrs by Annexin V/propidium iodide based flow cytometric analysis (reference value: 0.207 %); type: functional
[45] = system: HeLa; assay: cells; settings: Homo sapiens, 24 h
Description: Antiproliferative activity against human HeLa cells after 24 hrs by MTT assay

[46] = system: HeLa; assay: Reduction in cell migration in PGE2-induced human HeLa cells at 2 uM by transwell migration assay; type: functional, cell-based
[47] = system: HeLa; assay: Induction of apoptosis in human HeLa cells assessed as necrotic cells at 2 uM after 24 hrs by Annexin V/propidium iodide based flow cytometric analysis (reference value: 0.441 %); type: functional
[48] = system: HeLa; assay: Inhibition of cell adhesion in human HeLa cells assessed as reduction in cell attachment after 1 hr by MTT assay; type: functional, cell-based
[49] = cells; settings: Homo sapiens, L02, 24 h
Description: Antiproliferative activity against human LO2 cells after 24 hrs by MTT assay

## NS(=O)(=O)c1ccc(-n2nc(C(=O)N/N=C/c3c(Cl)c4ccccc4oc3=O)cc2-c2ccc(C(F)(F)F)cc2)cc1
[1]
  Activity: 10.2%
[2]
  Activity: 2.14%
[3]
  viability at 2 µM: 85.9%
[4]
  viability at 8 µM: 49%
[5]
  inhibition: Active
[6]
  Activity: 33.6%
[7]
  viability at 1 µM: 94%
[8]
  IC50: 48.2 µM
[9]
  Activity: Active
[10]
  Activity: 1.82%
[11]
  Activity: Active
[12]
  IC50: 2.27 µM
[13]
  viability at 4 µM: 62%
[14]
  Activity: 3.58%
[15]
  Activity: 2.12%
[16]
  Activity: 7.64%
[17]
  Activity: 11%
[18]
  Activity: 14.8%
[19]
  inhibition: Active
[20]
  Activity: 3.02%
[21]
  viability at 3 µM: 92.9%
[22]
  Activity: 3.79%
[23]
  inhibition at 2 µM: 60%
[24]
  Activity: 0.049%
[25]
  Activity: 24.8%
[26]
  Activity: 0.276%
[27]
  Activity: 0.301%
[28]
  IC50: 0.85 µM
[29]
  IC50: 2.56 µM
[30]
  Activity: 1.62%
[31]
  IC50: 234 µM
[32]
  Activity: 8.83%
[33]
  Activity: Active
[34]
  Activity: Active
[35]
  Activity: Dose-dependent effect
[36]
  Activity: 15.6%
[37]
  Activity: Active
[38]
  Activity: Active
[39]
  viability at 3 µM: 66.6%
[40]
  Activity: 6.29%
[41]
  Activity: 21.6%
[42]
  Activity: Active
[43]
  viability at 3 µM: 76.3%
[44]
  Activity: 0.276%
[45]
  IC50: 0.36 µM
[46]
  Activity: Active
[47]
  Activity: 0.143%
[48]
  inhibition: Dose-dependent effect
[49]
  IC50: 267 µM
